These results are taken from patent US20100029654A1, “CARDIOVASCULAR COMPOSITIONS AND USE OF THE SAME FOR THE TREATMENT OF ALZHEIMER'S DISEASE” (MOUNT SINAI SCHOOL OF MEDICINE, priority 2006, published 2010).

For series [1], the system named is primary cortico-hippocampal neuron cultures. The experiment in a line: MTT in primary screening.
The test system of the next series is Aβ1-42. Description: Aβ1-42 content in conditioned medium of primary cortico-hippocampal neuron cultures from Tg2576 mice (ELISA; primary and secondary dose-response screening). In kind it is cell-based, mouse. As to conditions: for Ab1-42 (% of ctl) / activity at 100 µM: drug 100 μM; for activity at 100 µM: Mus musculus, Neuron, 24 h, read-out: Ab1-42 (% of ctl). The procedure: (§1) Potential Aβ-lowering activity was assessed for 150 commercially available cardiovascular drugs using primary cortico-hippocampal neuron cultures derived from embryonic Tg2576 (El 6). […] All cardiovascular reagents were obtained from MicroSource Discovery Systems Inc (Gaylordsville, Conn.). […] Individual cardiovascular agents were applied directly to the culture medium (final 1% DMSO in the culture media). In control studies, parallel Tg2576 primary neuron cultures were treated with vehicle (1% DMSO) alone. The influence of drug treatments in Aβ content in the conditioned medium in treated cultures was assessed by assessing steady state levels of Aβ1-40 and Aβ1-42 in the culture media 24 hours after treatment.
(§2) Embryonic brain tissue was mechanically triturated and centrifuged. Neurons were seeded onto poly-D-lysine-coated 96-well plates at 1.0×10^5 cells per well and cultured in the serum-free chemically-defined medium Neurobasal, supplemented with 2% B27, 0.5 mM L-glutamine and 1% penicillin-streptomycin (Gibco-BRL).
(§3) For primary screening, cultured neurons were treated with 100 μM of drug in duplicates for 16 hours; all drugs were obtained in stock from MicroSource Discovery Systems Inc (Gaylordsville, Conn.). Conditioned medium was collected for Aβ detection using commercially available ELISA kits (BioSource). […] Primary neurons prepared in 96-well plates were treated with 0.1 μM, 1 μM, 10 μM, 50 μM, and 100 μM of each drug in duplicate for ˜16 hours and conditioned medium was collected for Aβ detection.

Series [2] deals with primary cortico-hippocampal neuron cultures. Description: lactate dehydrogenase (LDH) activity assay in parallel neuron cultures.
Description: For in vitro treatments drugs available from “The Spectrum Collection” in stocks of 10 mM in DMSO were applied directly to cultures to the desired concentrations (final 1% DMSO); control primary neuron cultures from Tg2576 embryos were treated with vehicle resulting in a final 1% DMSO.
Cell viability was assessed using a commercial available LDH assay kit according to the manufacture's instruction (Promega).
In another series the test system is Aβ1-40. The experiment in a line: Aβ1-40 content in conditioned medium of primary cortico-hippocampal neuron cultures from Tg2576 mice (ELISA; primary and secondary dose-response screening). As to conditions: for Ab1-40 (% of ctl) / activity at 100 µM: drug 100 μM; for activity at 100 µM: Mus musculus, Neuron, 24 h, read-out: Ab1-40 (% of ctl). In kind it is cell-based, mouse. How it is done:
as §1, §2, §3

The mark [3] stands for this setting: Primary Screening, table sorted by Aβ1-40.
Setting [4] is: primary screening, table sorted by Aβ1-42.
The mark [5] stands for this setting: primary screening, Tg2576 neuron cultures, table sorted by Aβ1-42.

Where a name gives a salt, the structure may show the parent alone. Read-outs that look alike come from different tables or passages of the source.

For `CCOc1nc2cccc(C(=O)OC(C)OC(=O)OC3CCCCC3)c2n1Cc1ccc(-c2ccccc2-c2nn[nH]n2)cc1` (stereo not drawn) [Candesartan Cilextil], the “MTT (% of ctl)” value in series [1] (setting [3]) and in series [1] (setting [4]) was 41.2 % of ctl throughout. Also, the “Ab1-42 (% of ctl)” value with Aβ1-42 (setting [3]) and in the series on Aβ1-42 (setting [5]) was 18.1 % of ctl each time. For the same compound, the “reducing Aβ1-42” value in the series on Aβ1-42 (primary screening, <85% of ctl) was “useful in reducing Aβ1-42”. For the same compound, the “LDH (% of ctl)” value in series [2] (setting [3]) and in series [2] (setting [4]) was 227.6 % of ctl throughout. Further, the “Ab1-40 (% of ctl)” value in the series on Aβ1-40 (setting [3]) and in the series on Aβ1-40 (setting [5]) was 9.3 % of ctl in each case. For the same compound, the “reduced Aβ1-40” value in the series on Aβ1-40 (primary screening, <85% of ctl) is listed as “reduced Aβ1-40”.
With `C[C@]12CCC(=O)C=C1C=C[C@@H]1[C@@H]2CC[C@@]2(C)[C@H]1CC[C@@]2(O)CCC(=O)O` [Canrenoic Acid, Potassium Salt], the “MTT (% of ctl)” value in series [1] (setting [3]) and in series [1] (setting [4]) was 102.1 % of ctl in each case. In addition, the activity at 100 µM amounted to 106% with Aβ1-42 (setting [3]), 106% in the series on Aβ1-42 (setting [5]), 101% in the series with Aβ1-40 (setting [3]) and 101% in the series with Aβ1-40 (setting [5]). Moreover, the “LDH (% of ctl)” value in series [2] (setting [3]) and in series [2] (setting [4]) was 106.9 % of ctl throughout.
On to `C[C@H](CS)C(=O)N1CCC[C@H]1C(=O)O` [Captopril], for which the “MTT (% of ctl)” value in series [1] (setting [3]) and in series [1] (setting [4]) was 62.3 % of ctl throughout. Further, the activity at 100 µM in the series on Aβ1-42 (setting [3]) turned out to be 99.7%; in the series on Aβ1-42 (setting [5]), 99.7%; in the series on Aβ1-40 (setting [3]), 104%; with Aβ1-40 (setting [5]) it was 104%. The “LDH (% of ctl)” value in series [2] (setting [3]) and in series [2] (setting [4]) was 120.2 % of ctl each time.
For `NS(=O)(=O)c1cc2c(cc1Cl)N=CNS2(=O)=O` [Chlorothiazide], the “MTT (% of ctl)” value in series [1] (setting [3]) and in series [1] (setting [4]) was 99.4 % of ctl each time. Also, the activity at 100 µM in the series on Aβ1-42 (setting [3]) stood at 104%; in the series with Aβ1-42 (setting [5]), 104%; in the series on Aβ1-40 (setting [3]), 107%; in the series with Aβ1-40 (setting [5]), 107%. Moreover, the “LDH (% of ctl)” value in series [2] (setting [3]) and in series [2] (setting [4]) was 110.3 % of ctl throughout.
Turning to `NS(=O)(=O)c1cc(C2(O)NC(=O)c3ccccc32)ccc1Cl` (stereo not drawn) [Chlorthalidone], the “MTT (% of ctl)” value in series [1] (setting [3]) and in series [1] (setting [4]) was 12.1 % of ctl in each case. Besides, the activity at 100 µM in the series with Aβ1-42 (setting [3]) turned out to be 96.7%; in the series on Aβ1-42 (setting [5]) it was 96.7%; with Aβ1-40 (setting [3]), 108%; with Aβ1-40 (setting [5]), 108%. Also, the “LDH (% of ctl)” value in series [2] (setting [3]) and in series [2] (setting [4]) was 645.8 % of ctl each time.
With `O=c1cc(-c2ccccc2)oc2cc(O)cc(O)c12` [Chrysin], the “MTT (% of ctl)” value in series [1] (setting [3]) and in series [1] (setting [4]) was 84.5 % of ctl each time. Also, the activity at 100 µM was found to be 83.4% in the series with Aβ1-42 (setting [3]), 83.4% in the series on Aβ1-42 (setting [5]), 71.6% in the series with Aβ1-40 (setting [3]) and 71.6% in the series with Aβ1-40 (setting [5]). The “LDH (% of ctl)” value in series [2] (setting [3]) and in series [2] (setting [4]) was 118.3 % of ctl throughout.
In the case of `CCOC(=O)C(C)(C)Oc1ccc(Cl)cc1` [Clofibrate], the “MTT (% of ctl)” value in series [1] (setting [3]) and in series [1] (setting [4]) was 97.9 % of ctl throughout. In addition, the activity at 100 µM in the series with Aβ1-42 (setting [3]) was 92.5%; with Aβ1-42 (setting [5]), 92.5%; in the series on Aβ1-40 (setting [3]), 90.9%; in the series on Aβ1-40 (setting [5]), 90.9%. The “LDH (% of ctl)” value in series [2] (setting [3]) and in series [2] (setting [4]) was 110.5 % of ctl each time.
Turning to `C[C@@H]1CCC[C@H](C)N1NC(=O)c1ccc(Cl)c(S(N)(=O)=O)c1` [Clopamide], the “MTT (% of ctl)” value in series [1] (setting [3]) and in series [1] (setting [4]) was 99.2 % of ctl throughout. Further, the activity at 100 µM worked out at 98.9% with Aβ1-42 (setting [3]), 98.9% in the series with Aβ1-42 (setting [5]), 92% in the series on Aβ1-40 (setting [3]) and 92% in the series with Aβ1-40 (setting [5]). The “LDH (% of ctl)” value in series [2] (setting [3]) and in series [2] (setting [4]) was 99.9 % of ctl in each case.
